Assay results published in patent publication US9578878B2, “Antimicrobial efficacy of an oregano oil and caprylic acid blend” (Kemin Industries, Inc., priority 2014, dated 2017).

Columns and labels:
[1] = tested on: Pseudomonas aeruginosa (ATCC #9027); assay: Preservative efficacy test (USP 51) in cold process cream, Example 1; type: cell-based; details: cream with 0.5% or 1.0% caprylic acid, after 2 days
Description: (§1) Creams were prepared aseptically by spraying 70% isopropyl alcohol on all surfaces and labware. Carbomer 940 and coco caprylate were obtained from BPI Labs, Inc. (Evanston, Wyo.). Safflower and olive oils were purchased from Jedwards International, Inc. (Quincy, Mass.). The cream formulations were as follows: […]
(§2) Preservative studies were completed at different times for caprylic acid and 10% carvacrol in caprylic acid. The negative and positive controls were designated at A, B for the caprylic acid study and 1, 2 for the addition of carvacrol in Table 1. The change in positive control ingredients was due to a shift in the preservative used for regular KPC formulations.
(§3) DI water was added to a pre-weighed 250 mL beaker and mixed at 800 rpm using an overhead mixer (Eurostar power-b IKA-WERKE, Wilmington, N.C.) with a 3 blade […] impeller. Carbomer 940 was slowly added to the center of the mixing water. The mixture was hydrated for 30 minutes while covered with aluminum foil. Glycerin quickly followed by Lysofix were slowly added to the solution. After 2 minutes, safflower oil, olive oil, and coco caprylate were slowly added to the mixture at 1000 rpm. The solution was mixed for 30 minutes while covered with aluminum foil. Next the pH was measured and adjusted to 5.5 with a 33.3% sodium hydroxide solution. The mixing speed was increased to 1400 rpm. From time to time, it was necessary to scrape the sides of the beaker with a spatula to ensure that the cream became homogenized. When the cream appeared homogenized, the amount of preservative or treatment was added. After 2 minutes, the cream was weighed and water added to reach a mass balance.
(§4) Microorganisms Escherichia coli (ATCC #8739), Staphylococcus aureus (ATCC #6538), Pseudomonas aeruginosa (ATCC #9027), and Candida albicans (ATCC #10231) were obtained from a −80° C. internal stock culture. Aspergillus brasiliensis (ATCC #16404) was obtained from an internal stock solution cultured stored at 4° C. E. coli, S. aureus, and P. aeruginosa were grown in tryptic soy broth (Bacto, BD Sciences, Manassas, Va.) and incubated at 37° C. for 24 h. A. brasiliensis was plated on Sabourand dextrose agar (Bacto, BD Sciences, Manassas, Va.) and incubated at 25° C. for 5-7 days. C. albicans was grown in Sabourand dextrose broth (Bacto, BD Sciences, Manassas, Va.) and incubated at 25° C. for 48 h.
(§5) Pathogens in broth were harvested by centrifugation (2400 rpm, 20 minutes) and suspended in sterile saline. A. brasiliensis was harvested by adding 18 mL sterile saline to the plate and agitating the mold from the agar with a sterile inoculating loop. The inoculum was collected upon agitation. All suspended microbes were diluted with sterile saline until an inoculum in the range of 10^8 CFU/mL was achieved. The inoculum concentration was determined by plate count method. Each strain was identified by plating on the appropriate growth media, E. coli, S. aureus, and P. aeruginosa on tryptic soy agar (Bacto, BD Sciences, Manassas, Va.) and C. albicans and A. brasiliensis on Sabrouand dextrose agar, to ensure there was no contamination of the inoculum.
(§6) Creams were plated according to the SOP^1 to ensure they were sterile. Each prepared cream was inoculated with 0.1 mL of inoculum per 10 g of sample to reach the targeted inoculated concentration of 6-log cfu/g. Samples were vortexed for 2 minutes. The inoculated creams were incubated at 25° C. […]

[2] = tested on: Staphylococcus aureus (ATCC #6538); assay: as above; type: cell-based; details: cream with 0.5% or 1.0% caprylic acid, after 2 days
Description: as §1, §2, §3, §4, §5, §6

[3] = tested on: Candida albicans (ATCC #10231); assay: as above; type: cell-based; details: cream with 0.5% or 1.0% caprylic acid, after 2 days
Description: as §1, §2, §3, §4, §5, §6

[4] = tested on: Escherichia coli (ATCC #8739); assay: as above; type: cell-based; details: cream with 0.5% or 1.0% caprylic acid, after 3 days
Description: as §1, §2, §3, §4, §5, §6

A. brasiliensis [5] = assay: Zone of inhibition assay; type: cell-based, Aspergillus brasiliensis; details: 20 μL per 6 mm disk, 72 hrs, n = 3
Description: For assays to find minimum inhibitory concentrations, all treatments were diluted in 10% DMSO and 0.5% Tween 80 to stabilize the samples.
(§7) Microorganisms Escherichia coli (ATCC #8739), Streptococcus sanguinis (ATCC #BAA-1455), Salmonella enteria subsp. enterica (ex Kauffmann and Edwards) Le Minor and Popoff serovar Typhimurium (ATCC #14028), Staphylococcus aureus (ATCC #6538), Pseudomonas aeruginosa (ATCC #9027), and Candida albicans (ATCC #10231) were obtained from a −80° C. internal stock culture. Aspergillus brasiliensis (ATCC #16404) was obtained from an internal stock solution culture stored at 4° C. E. coli, S. enterica S. aureus, and P. aeruginosa were grown in tryptic soy broth (TSB) and incubated at 37° C. for 24 h. S. sanguinis was grown in brain heart infusion broth (BHI). A. brasiliensis was plated on Sabourand dextrose agar (SDA) and incubated at 25° C. for 5-7 days. C. albicans was grown in Sabourand dextrose broth (SDB) and incubated at 25° C. for 48 h.
as §5, with “A.” for “Pathogens in broth were harvested by centrifugation (2400 rpm, 20 minutes) and suspended in sterile saline. A.”, “with the same type of broth media used to grow each organism” for “with sterile saline”, “of 10^6” for “of 10^8”
A zone of inhibition assay was used for A. brasiliensis and C. albicans. SDA was used as the plated medium. Inocula at 10^5 cfu/ml were prepared and counted using a Petroff-Hausser counting chamber. The diameter of no growth around a 6 mm blank disk after incubation at 25° C. for 72 hrs was compared to the untreated control. 20 μL of treatment was applied to each disk in triplicate. 10% DMSO was used as the control.

A. brasiliensis [6] = assay: Poison agar assay; type: cell-based, Aspergillus brasiliensis
Description: as §7
as §5, with “A.” for “Pathogens in broth were harvested by centrifugation (2400 rpm, 20 minutes) and suspended in sterile saline. A.”, “with the same type of broth media used to grow each organism” for “with sterile saline”, “of 10^6” for “of 10^8”
A poison agar assay was completed for A. brasiliensis. Potato dextrose agar was used as the plated medium. Inocula at 10^5 cfu/ml were prepared and counted using a Petroff-Hausser counting chamber. Each treatment was added directly into the control without DMSO and Tween 80 as used in the previous experiments. The diameter of no growth around a 6 mm blank disk after incubation at 25° C. for 72 hrs was compared to the untreated control.

CCCCCCCC(=O)O [Caprylic Acid, octanoic acid]
Log reduction of P. aeruginosa [1]: 5 log
Log reduction of S. aureus [2]: 5 log
Log reduction of C. albicans [3]: 5 log
Log reduction of E. coli [4]: 5 log
Inhibition Diameter, A. brasiliensis (A. brasiliensis [5]; 0.9% treatment): 0 mm
Inhibition Diameter, A. brasiliensis (A. brasiliensis [5]; 2.7% treatment): 0 mm
Inhibition Diameter, A. brasiliensis (A. brasiliensis [5]; 4.5% treatment): 0 mm
% Inhibition from Control (A. brasiliensis [6]; 0.045% in agar): 34.60%
Diameter of Growth (A. brasiliensis [6]; 0.045% in agar): 5.00 mm
% Inhibition from Control (A. brasiliensis [6]; 0.090% in agar): 100.00%
Diameter of Growth (A. brasiliensis [6]; 0.090% in agar): 0.00 mm
% Inhibition from Control (A. brasiliensis [6]; 0.270% in agar): 100.00%
Diameter of Growth (A. brasiliensis [6]; 0.270% in agar): 0.00 mm
MIC90 in the poison agar assay (A. brasiliensis [6]; potato dextrose agar, 25° C., 72 hrs): 0.09%
